Results taken from PMC10465233, “Lys-urea-Aad, Lys-urea-Cmc and Lys-urea-Cms as potential pharmacophores for the design of PSMA-targeted radioligands to reduce off-target uptake in kidneys and salivary glands” (Theranostics, 2023).
Values joined by “and” are separate entries in the source; they are usually repeats but may differ in a detail not shown here. Equal values may be shown once.

Test system: LNCaP tumor-bearing mice
Assay: Ex vivo biodistribution in LNCaP tumor-bearing mice
Design: species or system mouse
Details: for Time of peak tumor uptake: post-injection
Protocol: Imaging, biodistribution and radioligand therapy experiments were performed following previously published procedures using male NOD-scid IL2Rg^null (NSG) or NOD.Cg-Rag1^tm1MomIl2rg^tm1Wjl/SzJ (NRG) mice [10]-[12],[14]-[15]. The experiments were conducted according to the guidelines established by the Canadian Council on Animal Care and approved by Animal Ethics Committee of the University of British Columbia. The mice were briefly sedated by inhalation of 2% isoflurane in oxygen, and implanted subcutaneously with 1×10^7 LNCaP cells behind the left shoulder. The mice were imaged or used in biodistribution studies when the tumor grew to 5-8 mm in diameter over a period of 4-5 weeks.
For biodistribution studies, the mice were injected with the radioligand (2-4 MBq) as described above. For blocking, the mice were co-injected with nonradioactive DCFPyL (0.5 mg). At predetermined time points, the mice were sedated by isoflurane inhalation and euthanized by CO2 inhalation. Blood was withdrawn by cardiac puncture, and organs/tissues of interest were collected, weighed and counted using an automatic gamma counter (Tables S4-S7).

`COc1ccc(CCCC(=O)NCC(=O)N[C@@H](CCCCNC(=O)CN2CCN(CC(=O)[O-])CCN(CC(=O)[O-])CCN(CC(=O)[O-])CC2)C(=O)NC[C@H]2CC[C@H](C(=O)N[C@@H](Cc3c4ccccc4cc4ccccc34)C(=O)NCCCC[C@H](NC(=O)N[C@@H](COCC(=O)O)C(=O)O)C(=O)O)CC2)cc1.[177Lu+3]` [[^177Lu]Lu-HTK04028] was tested, and the Adrenal glands uptake (1 h post-injection) was 3.25 ± 0.34 %ID/g, the Blood uptake (1 h post-injection) was 17.7 ± 2.10 %ID/g and the “Blood:Salivary gland uptake ratio” value (1 h post-injection) was 6.93 ± 0.33. The Bone uptake (1 h post-injection) was 0.99 ± 0.21 %ID/g, the Brain uptake (1 h post-injection) was 0.26 ± 0.03 %ID/g and the Fat uptake (1 h post-injection) was 1.26 ± 0.21 %ID/g. It also gave a Heart uptake (1 h post-injection) of 4.15 ± 0.31 %ID/g, an Intestines uptake (1 h post-injection) of 1.23 ± 0.24 %ID/g and a Kidneys uptake (1 h post-injection) of 8.30 ± 1.58 %ID/g. For the same molecule, the Lacrimal glands uptake (1 h post-injection) was 0.51 ± 0.23 %ID/g, the Liver uptake (1 h post-injection) was 2.93 ± 0.51 %ID/g and the Lungs uptake (1 h post-injection) was 7.88 ± 1.77 %ID/g. For the same molecule, the Muscle uptake (1 h post-injection) was 1.32 ± 0.19 %ID/g, the Pancreas uptake (1 h post-injection) was 1.53 ± 0.22 %ID/g and the Salivary glands uptake (1 h post-injection) was 2.55 ± 0.21 %ID/g. For the same molecule, the Spleen uptake (1 h post-injection) was 1.53 ± 0.23 %ID/g, the Stomach uptake (1 h post-injection) was 0.51 ± 0.18 %ID/g and the Testes uptake (1 h post-injection) was 2.26 ± 0.46 %ID/g. The Thyroid uptake (1 h post-injection) was 3.30 ± 0.42 %ID/g, the Tumor uptake (1 h post-injection) was 19.0 ± 5.86 %ID/g and the “Tumor:Blood uptake ratio” value (1 h post-injection) was 1.11 ± 0.45. The “Tumor:Kidney uptake ratio” value (1 h post-injection) was 2.39 ± 0.99, the “Tumor:Muscle uptake ratio” value (1 h post-injection) was 14.5 ± 4.46 and the “Tumor:Salivary gland uptake ratio” value (1 h post-injection) was 7.60 ± 2.89. The Adrenal glands uptake (4 h post-injection) was 2.18 ± 0.33 %ID/g, the Blood uptake (4 h post-injection) was 12.2 ± 1.66 %ID/g and the “Blood:Salivary gland uptake ratio” value (4 h post-injection) was 7.09 ± 1.45. The Bone uptake (4 h post-injection) was 0.63 ± 0.10 %ID/g, the Brain uptake (4 h post-injection) was 0.19 ± 0.02 %ID/g and the Fat uptake (4 h post-injection) was 0.89 ± 0.24 %ID/g. The Heart uptake (4 h post-injection) was 2.67 ± 0.31 %ID/g, the Intestines uptake (4 h post-injection) was 1.04 ± 0.12 %ID/g and the Kidneys uptake (4 h post-injection) was 9.21 ± 2.76 %ID/g. For the same molecule, the Lacrimal glands uptake (4 h post-injection) was 0.39 ± 0.19 %ID/g, the Liver uptake (4 h post-injection) was 2.29 ± 0.55 %ID/g and the Lungs uptake (4 h post-injection) was 5.79 ± 0.44 %ID/g. It also gave a Muscle uptake (4 h post-injection) of 0.83 ± 0.09 %ID/g, a Pancreas uptake (4 h post-injection) of 1.24 ± 0.04 %ID/g and a Salivary glands uptake (4 h post-injection) of 1.75 ± 0.25 %ID/g. The Spleen uptake (4 h post-injection) was 1.44 ± 0.31 %ID/g, the Stomach uptake (4 h post-injection) was 0.45 ± 0.06 %ID/g and the Testes uptake (4 h post-injection) was 2.66 ± 0.41 %ID/g. The Thyroid uptake (4 h post-injection) was 2.30 ± 0.30 %ID/g, the Tumor uptake (4 h post-injection) was 42.6 ± 11.6 %ID/g and the “Tumor:Blood uptake ratio” value (4 h post-injection) was 3.60 ± 1.24. For the same molecule, the “Tumor:Kidney uptake ratio” value (4 h post-injection) was 4.89 ± 1.58, the “Tumor:Muscle uptake ratio” value (4 h post-injection) was 52.2 ± 17.4 and the “Tumor:Salivary gland uptake ratio” value (4 h post-injection) was 24.5 ± 5.95. For the same molecule, the Adrenal glands uptake (24 h post-injection) was 0.73 ± 0.13 %ID/g, the Blood uptake (24 h post-injection) was 0.82 ± 0.11 %ID/g and the “Blood:Salivary gland uptake ratio” value (24 h post-injection) was 1.88 ± 0.42. The Bone uptake (24 h post-injection) was 0.11 ± 0.02 %ID/g, the Brain uptake (24 h post-injection) was 0.02 ± 0.00 %ID/g and the Fat uptake (24 h post-injection) was 0.14 ± 0.02 %ID/g. It also gave a Heart uptake (24 h post-injection) of 0.36 ± 0.03 %ID/g, an Intestines uptake (24 h post-injection) of 0.23 ± 0.05 %ID/g and a Kidneys uptake (24 h post-injection) of 4.32 ± 0.58 %ID/g. For the same molecule, the Lacrimal glands uptake (24 h post-injection) was 0.05 ± 0.04 %ID/g, the Liver uptake (24 h post-injection) was 0.54 ± 0.09 %ID/g and the Lungs uptake (24 h post-injection) was 1.08 ± 0.72 %ID/g. For the same molecule, the Muscle uptake (24 h post-injection) was 0.11 ± 0.02 %ID/g, the Pancreas uptake (24 h post-injection) was 0.15 ± 0.02 %ID/g and the Salivary glands uptake (24 h post-injection) was 0.45 ± 0.10 %ID/g. It also gave a Spleen uptake (24 h post-injection) of 0.48 ± 0.14 %ID/g, a Stomach uptake (24 h post-injection) of 0.31 ± 0.10 %ID/g and a Testes uptake (24 h post-injection) of 0.55 ± 0.05 %ID/g. The Thyroid uptake (24 h post-injection) was 0.52 ± 0.08 %ID/g, the Tumor uptake (24 h post-injection) was 30.2 ± 2.74 %ID/g and the “Tumor:Blood uptake ratio” value (24 h post-injection) was 37.2 ± 4.22. The “Tumor:Kidney uptake ratio” value (24 h post-injection) was 7.06 ± 0.86, the “Tumor:Muscle uptake ratio” value (24 h post-injection) was 275 ± 35.3 and the “Tumor:Salivary gland uptake ratio” value (24 h post-injection) was 69.3 ± 15.8. The Adrenal glands uptake (72 h post-injection) was 0.48 ± 0.17 %ID/g, the Blood uptake (72 h post-injection) was 0.05 ± 0.01 %ID/g and the “Blood:Salivary gland uptake ratio” value (72 h post-injection) was 0.26 ± 0.06. The Bone uptake (72 h post-injection) was 0.05 ± 0.02 %ID/g, the Brain uptake (72 h post-injection) was 0.01 ± 0.00 %ID/g and the Fat uptake (72 h post-injection) was 0.06 ± 0.02 %ID/g. For the same molecule, the Heart uptake (72 h post-injection) was 0.12 ± 0.03 %ID/g, the Intestines uptake (72 h post-injection) was 0.07 ± 0.03 %ID/g and the Kidneys uptake (72 h post-injection) was 1.77 ± 0.25 %ID/g. The Lacrimal glands uptake (72 h post-injection) was 0.01 ± 0.01 %ID/g, the Liver uptake (72 h post-injection) was 0.22 ± 0.02 %ID/g and the Lungs uptake (72 h post-injection) was 0.18 ± 0.02 %ID/g. The Muscle uptake (72 h post-injection) was 0.03 ± 0.01 %ID/g, the Pancreas uptake (72 h post-injection) was 0.05 ± 0.01 %ID/g and the Salivary glands uptake (72 h post-injection) was 0.19 ± 0.05 %ID/g. It also gave a Spleen uptake (72 h post-injection) of 0.49 ± 0.16 %ID/g, a Stomach uptake (72 h post-injection) of 0.07 ± 0.07 %ID/g and a Testes uptake (72 h post-injection) of 0.31 ± 0.05 %ID/g. For the same molecule, the Thyroid uptake (72 h post-injection) was 0.24 ± 0.04 %ID/g, the Tumor uptake (72 h post-injection) was 26.1 ± 7.29 %ID/g and the “Tumor:Blood uptake ratio” value (72 h post-injection) was 550 ± 108. For the same molecule, the “Tumor:Kidney uptake ratio” value (72 h post-injection) was 14.6 ± 2.72, the “Tumor:Muscle uptake ratio” value (72 h post-injection) was 886 ± 181 and the “Tumor:Salivary gland uptake ratio” value (72 h post-injection) was 144 ± 35.6. The Adrenal glands uptake (120 h post-injection) was 0.33 ± 0.05 %ID/g, the Blood uptake (120 h post-injection) was 0.02 ± 0.00 %ID/g and the “Blood:Salivary gland uptake ratio” value (120 h post-injection) was 0.17 ± 0.04. For the same molecule, the Bone uptake (120 h post-injection) was 0.04 ± 0.02 %ID/g, the Fat uptake (120 h post-injection) was 0.03 ± 0.01 %ID/g and the Heart uptake (120 h post-injection) was 0.07 ± 0.01 %ID/g. The Intestines uptake (120 h post-injection) was 0.08 ± 0.05 %ID/g, the Kidneys uptake (120 h post-injection) was 1.16 ± 0.13 %ID/g and the Liver uptake (120 h post-injection) was 0.16 ± 0.02 %ID/g. For the same molecule, the Lungs uptake (120 h post-injection) was 0.09 ± 0.01 %ID/g, the Muscle uptake (120 h post-injection) was 0.02 ± 0.00 %ID/g and the Pancreas uptake (120 h post-injection) was 0.03 ± 0.00 %ID/g. It also gave a Salivary glands uptake (120 h post-injection) of 0.11 ± 0.03 %ID/g, a Spleen uptake (120 h post-injection) of 0.54 ± 0.15 %ID/g and a Stomach uptake (120 h post-injection) of 0.10 ± 0.10 %ID/g. The Testes uptake (120 h post-injection) was 0.22 ± 0.01 %ID/g, the Thyroid uptake (120 h post-injection) was 0.13 ± 0.02 %ID/g and the Tumor uptake (120 h post-injection) was ~ 28 %ID/g. The “Tumor:Blood uptake ratio” value (120 h post-injection) was 1714 ± 320, the “Tumor:Kidney uptake ratio” value (120 h post-injection) was 24.9 ± 5.16 and the “Tumor:Muscle uptake ratio” value (120 h post-injection) was 1825 ± 415. The “Tumor:Salivary gland uptake ratio” value (120 h post-injection) was 284 ± 87.9, the Tumor uptake (120 h post-injection, listed as [177Lu]Lu-HTK04028) was 28.4 ± 5.11 %ID/g and the “Peaked average tumor uptake” value (peak over 1-120 h post-injection) was ~ 43 %ID/g and 42.6 %ID/g. The “Time of peak tumor uptake” value was 4 h and the “Time of peak tumor uptake” value (listed as 177Lu-labeled HTK04028) was 4 to 24 h.
